Laboratory results as given in ChEMBL document CHEMBL1155059, “Synthesis and biological evaluation of trisubstituted imidazole derivatives as inhibitors of p38alpha mitogen-activated protein kinase” (Bioorg Med Chem Lett, 2008).

How the values were obtained:
[1] = biological target: Mitogen-activated protein kinase 14 (Homo sapiens, UniProt Q16539); experiment: Inhibition of human recombinant p38alpha MAPK expressed in Escherichia coli by radioisotopic protein kinase assay
[2] = biological target: T1, TGF-beta receptor type-1 (Homo sapiens, UniProt P36897); experiment: Inhibition of GST fused human recombinant ALK5 expressed in Sf9 cells by radioisotopic protein kinase assay
T1 sequence (P36897 whole entry): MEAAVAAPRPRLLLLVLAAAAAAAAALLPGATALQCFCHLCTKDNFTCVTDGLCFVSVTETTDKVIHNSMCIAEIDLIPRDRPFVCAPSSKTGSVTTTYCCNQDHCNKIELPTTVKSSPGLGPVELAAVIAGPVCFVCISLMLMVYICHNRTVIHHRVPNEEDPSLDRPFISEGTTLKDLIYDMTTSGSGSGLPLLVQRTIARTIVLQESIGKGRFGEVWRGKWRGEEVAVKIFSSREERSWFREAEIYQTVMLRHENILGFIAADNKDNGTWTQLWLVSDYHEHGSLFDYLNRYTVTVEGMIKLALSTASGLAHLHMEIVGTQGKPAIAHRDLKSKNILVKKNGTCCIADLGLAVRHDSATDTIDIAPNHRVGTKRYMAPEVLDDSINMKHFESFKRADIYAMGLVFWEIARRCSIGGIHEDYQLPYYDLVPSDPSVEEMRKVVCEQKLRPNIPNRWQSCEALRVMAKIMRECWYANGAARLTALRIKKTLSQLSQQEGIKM

Mitogen-activated protein kinase 14, sequence (Q16539 whole entry, the tested form may be a part): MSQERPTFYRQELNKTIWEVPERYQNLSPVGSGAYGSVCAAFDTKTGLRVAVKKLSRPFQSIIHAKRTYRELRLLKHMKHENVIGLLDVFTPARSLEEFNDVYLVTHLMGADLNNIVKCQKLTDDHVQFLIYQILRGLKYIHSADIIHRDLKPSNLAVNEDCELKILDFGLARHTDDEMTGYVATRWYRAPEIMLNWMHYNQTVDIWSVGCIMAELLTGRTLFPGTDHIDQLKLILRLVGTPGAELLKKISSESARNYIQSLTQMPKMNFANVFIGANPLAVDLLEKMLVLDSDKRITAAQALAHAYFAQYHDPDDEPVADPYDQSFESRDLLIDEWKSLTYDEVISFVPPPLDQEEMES

IC50 [1] | IC50 [2] | SMILES
48.5 nM | > 1000 nM | COc1nccc(-c2[nH]c(Cc3cccc(C(N)=O)c3)nc2-c2ccc(F)cc2)n1
62.8 nM | > 1000 nM | COc1nccc(-c2[nH]c(Cc3cccc(C#N)c3)nc2-c2ccc(F)cc2)n1
916 nM | > 1000 nM | COc1nccc(-c2c(-c3ccc(F)cc3)ncn2Cc2ccc(C(N)=O)cc2)n1
> 1000 nM | > 1000 nM | C[C@H](Nc1nccc(-c2ncn(Cc3cccc(C(N)=O)c3)c2-c2ccc(F)cc2)n1)c1ccccc1
148 nM | > 1000 nM | COc1ccc(CNc2nccc(-c3[nH]c(Cc4cccc(C#N)c4)nc3-c3ccc(F)cc3)n2)cc1
225 nM | > 1000 nM | COc1nccc(-c2c(-c3ccc(F)cc3)ncn2Cc2cccc(C(N)=O)c2)n1
55.6 nM | > 1000 nM | C[C@H](Nc1nccc(-c2c(-c3ccc(F)cc3)ncn2Cc2ccc(C(N)=O)cc2)n1)c1ccccc1
260 nM | > 1000 nM | COc1nccc(-c2c(-c3ccc(F)cc3)ncn2Cc2cccc(C#N)c2)n1
87.1 nM | > 1000 nM | C[C@H](Nc1nccc(-c2c(-c3ccc(F)cc3)ncn2Cc2ccc(C#N)cc2)n1)c1ccccc1
344 nM | > 1000 nM | NC(=O)c1cccc(Cn2cnc(-c3ccc(F)cc3)c2-c2ccnc(N)n2)c1
55.1 nM | > 1000 nM | C[C@H](Nc1nccc(-c2c(-c3ccc(F)cc3)ncn2Cc2cccc(C(N)=O)c2)n1)c1ccccc1
859 nM | > 1000 nM | COc1nccc(-c2c(-c3ccc(F)cc3)ncn2Cc2ccc(C#N)cc2)n1
95.4 nM | > 1000 nM | C[C@H](Nc1nccc(-c2[nH]c(Cc3cccc(C#N)c3)nc2-c2ccc(F)cc2)n1)c1ccccc1
> 1000 nM | > 1000 nM | COc1nccc(-c2ncn(Cc3cccc(C(N)=O)c3)c2-c2ccc(F)cc2)n1
78 nM | > 1000 nM | C[C@H](Nc1nccc(-c2[nH]c(Cc3cccc(C(N)=O)c3)nc2-c2ccc(F)cc2)n1)c1ccccc1
> 1000 nM | > 1000 nM | COc1nccc(-c2ncn(Cc3ccc(C(N)=O)cc3)c2-c2ccc(F)cc2)n1
> 1000 nM | > 1000 nM | C[C@H](Nc1nccc(-c2ncn(Cc3ccc(C(N)=O)cc3)c2-c2ccc(F)cc2)n1)c1ccccc1
191 nM | > 1000 nM | COc1ccc(CNc2nccc(-c3c(-c4ccc(F)cc4)ncn3Cc3cccc(C#N)c3)n2)cc1

IC50 [1] | IC50 [2] | SMILES
140 nM | > 1000 nM | C[C@H](Nc1nccc(-c2c(-c3ccc(F)cc3)ncn2Cc2cccc(C#N)c2)n1)c1ccccc1
62.6 nM | > 1000 nM | N#Cc1cccc(Cn2cnc(-c3ccc(F)cc3)c2-c2ccnc(NC3CC3)n2)c1
4300 nM | – | Cc1cccc(-c2[nH]c(Cc3cccc(C(N)=O)c3)nc2-c2ccc3nccnc3c2)n1
> 1000 nM | > 1000 nM | COc1ccc(CNc2nccc(-c3ncn(Cc4cccc(C#N)c4)c3-c3ccc(F)cc3)n2)cc1
> 1000 nM | > 1000 nM | N#Cc1cccc(Cn2cnc(-c3ccnc(N)n3)c2-c2ccc(F)cc2)c1
> 1000 nM | > 1000 nM | NC(=O)c1cccc(Cn2cnc(-c3ccnc(N)n3)c2-c2ccc(F)cc2)c1
> 1000 nM | > 1000 nM | C[C@H](Nc1nccc(-c2ncn(Cc3cccc(C#N)c3)c2-c2ccc(F)cc2)n1)c1ccccc1
> 1000 nM | > 1000 nM | C[C@H](Nc1nccc(-c2ncn(Cc3ccc(C#N)cc3)c2-c2ccc(F)cc2)n1)c1ccccc1
> 1000 nM | > 1000 nM | COc1nccc(-c2ncn(Cc3ccc(C#N)cc3)c2-c2ccc(F)cc2)n1
> 1000 nM | > 1000 nM | N#Cc1cccc(Cn2cnc(-c3ccnc(NC4CC4)n3)c2-c2ccc(F)cc2)c1
822 nM | – | NC(=O)N(c1nc(-c2ccc(F)cc2)cs1)c1c(Cl)cccc1Cl
28 nM | > 1000 nM | N#Cc1cccc(Cc2nc(-c3ccc(F)cc3)c(-c3ccnc(N)n3)[nH]2)c1
31 nM | > 1000 nM | NC(=O)c1cccc(Cc2nc(-c3ccc(F)cc3)c(-c3ccnc(NC4CC4)n3)[nH]2)c1
54.4 nM | > 1000 nM | N#Cc1cccc(Cc2nc(-c3ccc(F)cc3)c(-c3ccnc(NC4CC4)n3)[nH]2)c1
> 1000 nM | > 1000 nM | NC(=O)c1cccc(Cn2cnc(-c3ccnc(NC4CC4)n3)c2-c2ccc(F)cc2)c1
101 nM | > 1000 nM | N#Cc1cccc(Cn2cnc(-c3ccc(F)cc3)c2-c2ccnc(N)n2)c1
27.6 nM | > 1000 nM | NC(=O)c1cccc(Cn2cnc(-c3ccc(F)cc3)c2-c2ccnc(NC3CC3)n2)c1
> 1000 nM | > 1000 nM | COc1nccc(-c2ncn(Cc3cccc(C#N)c3)c2-c2ccc(F)cc2)n1
